# Columns and labels:
# Mus musculus [1] = assay: Antinociceptive activity in acetic acid induced ICR mouse assessed as inhibition effect at 3.13 mg/kg, iv administered for 15 mins followed by acetic acid injection and measured within 15 mins; type: functional; conditions: 0.5 h, time 30 min
# Mus musculus [2] = assay: Antinociceptive activity in acetic acid induced ICR mouse assessed as inhibition effect at 25 mg/kg, iv administered for 15 mins followed by acetic acid injection and measured within 15 mins; type: functional; conditions: 0.5 h, time 30 min
# [3] = Aqueous solubility of the compound
# Mus musculus [4] = assay: Analgesic activity in iv dosed ICR mouse assessed as reduction in acetic acid induced writhing administered for 15 mins followed by acetic acid injection and measured within 15 mins; type: functional; conditions: 0.5 h, time 30 min
# Mus musculus [5] = assay: Antinociceptive activity in acetic acid induced ICR mouse assessed as inhibition effect at 6.25 mg/kg, iv administered for 15 mins followed by acetic acid injection and measured within 15 mins; type: functional; conditions: 0.5 h, time 30 min
# Mus musculus [6] = assay: Analgesic activity in acetic acid induced ICR mouse assessed as average writhing times at 6.25 mg/kg, iv administered for 15 mins followed by acetic acid injection and measured within 15 mins (reference value: 26.1 +/- 16.3); type: functional; conditions: time 30 min, 0.5 h
# Mus musculus [7] = assay: Analgesic activity in acetic acid induced ICR mouse assessed as average writhing times at 25 mg/kg, iv administered for 15 mins followed by acetic acid injection and measured within 15 mins (reference value: 26.1 +/- 16.3); type: functional; conditions: time 30 min, 0.5 h
# Rattus norvegicus = species: Rattus norvegicus; assay: Antiinflammatory activity in carrageenan-induced Sprague-Dawley rat assessed as paw withdrawal threshold measured after 2.5 hrs by paw pressure test; type: functional
# Mus musculus [8] = assay: Antinociceptive activity in acetic acid induced ICR mouse assessed as inhibition effect at 12.50 mg/kg, iv administered for 15 mins followed by acetic acid injection and measured within 15 mins; type: functional; conditions: 0.5 h, time 30 min
# Mus musculus [9] = assay: Analgesic activity in acetic acid induced ICR mouse assessed as average writhing times at 12.50 mg/kg, iv administered for 15 mins followed by acetic acid injection and measured within 15 mins (reference value: 26.1 +/- 16.3); type: functional; conditions: dose 12.5 mg/kg, time 30 min, 0.5 h
# Mus musculus [10] = assay: Analgesic activity in acetic acid induced ICR mouse assessed as average writhing times at 3.13 mg/kg, iv administered for 15 mins followed by acetic acid injection and measured within 15 mins (reference value: 26.1 +/- 16.3); type: functional; conditions: time 30 min, 0.5 h
# Mus musculus [11] = assay: Analgesic activity in acetic acid induced ICR mouse assessed as average writhing times at 50 mg/kg, iv administered for 15 mins followed by acetic acid injection and measured within 15 mins (reference value: 26.1 +/- 16.3); type: functional; conditions: time 30 min, 0.5 h
# Mus musculus [12] = assay: Antinociceptive activity in acetic acid induced ICR mouse assessed as inhibition effect at 50 mg/kg, iv administered for 15 mins followed by acetic acid injection and measured within 15 mins; type: functional; conditions: 0.5 h, time 30 min
# [13] = Aqueous solubility of the compound at pH 7.8; type: physicochemical
SMILES,inhibition in vivo at 3.13 mg/kg (Mus musculus [1]),inhibition in vivo at 25 mg/kg (Mus musculus [2]),solubility [3],ED50 (Mus musculus [4]),inhibition in vivo at 6.25 mg/kg (Mus musculus [5]),Activity (Mus musculus [6]),Activity (Mus musculus [7]),ED50 (Rattus norvegicus),inhibition in vivo at 12.5 mg/kg (Mus musculus [8]),Activity (Mus musculus [9]),Activity (Mus musculus [10]),Activity (Mus musculus [11]),inhibition in vivo at 50 mg/kg (Mus musculus [12]),solubility [13]
CC(C)Cc1ccc(C(C)C(=O)O)cc1 (stereo not drawn) [IBUPROFEN],19.5%,88.5%,21.9 µg/mL,5 mg/kg,76.6%,6.1,3,21 mg/kg,84.7%,4,21,–,–,–
CCC(=O)[N-]S(=O)(=O)c1ccc(-c2c(-c3ccccc3)noc2C)cc1.[Na+] [PARECOXIB SODIUM],–,61.3%,–,15.7 mg/kg,14.9%,22.2,10.1,22.7 mg/kg,47.5%,13.7,21,2.4,90.8%,18000 µg/mL

# — ChEMBL document CHEMBL5154819 (Eur J Med Chem, 2022)
